Source: patent US6906205B2, “Spiro and dispiro 1,2,4-trioxolane antimalarials” (Medicines for Malaria Venture MMV, priority 2002, dated 2005)
Converted amounts (≈) assume the structure as drawn. Like-named read-outs stand apart in the source and are kept apart here.

Experiments:
Schistosoma japonicum = assay: effect in mice infected with Schistosoma japonicum; type: in vivo; settings: age of worm 35 days, 400 mg/kg x 1
[1] = test system: Schistosoma mansoni 21-day-old schistosomules; assay: effect on 21-day-old schistosomules in mice; type: in vivo; settings: single 200 mg/kg per os, female mice
Description: All groups were killed 4 weeks after treatment and the liver and intestine were removed and separated. The liver and intestine were compressed and alive male and female worms could be seen and counted. The effect of the compounds was evaluated by mean total and female worm burden.

[2] = test system: ANKA strain of Plasmodium berghei; assay: single dose ED50/ED90/ED99 determinations in infected mice; type: in vivo; settings: single dose po in SSV, mice, percent reduction in parasitemia on day three post-infection
In short: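 Mice (Moro SPF or NMRI, n=3 per group) infected with P. berghei ANKA received a single dose on day 1 post-infection, vehicle 0.5% CMC/0.5% benzyl alcohol/0.4% Tween 80/0.9% NaCl in water. Read-out is percent reduction in parasitemia on day 3; ED values by nonlinear fitting.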

P. berghei ANKA strain [3] = assay: prophylactic activity, single 100 mg/kg po dose before infection; type: in vivo, Plasmodium berghei; settings: for Prophylactic Activity (%): reduction of parasitemia day 3 post-infection
Description: (§1) Moro NMRI male mice (Fü Albino specific pathogen free) weighing 18±2 g were infected intravenously (i.v.) with 2×10^7 P. berghei ANKA strain-infected erythrocytes from donor mice on day 0 of the experiment. From donor mice with circa 30% parasitemia, heparinized blood was taken and diluted in physiological saline to 10^8 parasitized erythrocytes per ml. An aliquot (0.2 ml) of this suspension was injected i.v. into experimental and control groups of mice. In untreated control mice, parasitemia rose regularly to 40 to 50% by day 3 post-infection and 70 to 80% by day 4 post-infection. The mice died between days 5 and 7 post-infection. Throughout the experiments, mice were kept in groups of three or five animals in Makrolon type II cages in an air-conditioned animal room at 22 to 23° C. A diet with p-aminobenzoic acid (PABA) of 45 mg (NAFAG FUTTER© food N^o 9009 PAB-45) per kg of body weight, and tap water is available ad libitum.
(§2) OZ compounds were prepared at an appropriate concentration, either as a solution or a suspension containing SSV (0.5% w/v CMC, 0.5% v/v benzyl alcohol, 0.4% v/v Tween 80, and 0.9% w/v sodium chloride in water). They were administered per os (p.o.) in a total volume of 0.01 ml per gram of mouse. The activity of the compound was determined by a variety of methods outlined in subsequent sections. Survival time was also recorded, and survival to day 30 post-infection was considered to be a cure.
Prophylactic activities of the compounds were compared after administering po single dose of 100 mg/kg to different groups of five animals at various times before infection. All groups including an untreated control group, were then infected at the same time. Parasitemia was determined for each animal on day 3 post-infection, and percent of reduction of the level of parasitemia compared to levels for animals given no drug is determined.

P. berghei ANKA strain [4] = assay: treatment: 3x3 mg/kg and 3x1 mg/kg po divided doses in infected mice; type: in vivo, Plasmodium berghei; settings: for Activity (%) p.o. SSV: percent reduction of parasitemia day 4
Description: as §1, §2
The second experiment consists of administration of divided 3×3 mg/kg and 3×1 mg/kg po doses administered on days 1, 2, and 3 post-infection. On day 4 post-infection, blood smears of all animals were prepared and stained with Giemsa. Parasitemia was determined microscopically, and the difference between the mean value of the control group (taken as 100%) and those of the experimental groups was calculated and expressed as percent reduction. Compounds were administered orally in the SSV vehicle.

[5] = test system: Schistosoma mansoni adult schistosomes (49-day-old); assay: effect on adult schistosomes (49-day-old) in mice; type: in vivo; settings: single 400 mg/kg per os
Description: Mice were infected with 100 Schistosoma mansoni cercariae […]. Each group was treated per os with OZ compounds at single doses of 200, 400, and 600 mg/kg. […] All groups were killed 4 weeks after treatment and the liver and intestine were removed and separated. The liver and intestine were compressed and alive male and female worms could be seen and counted.

[6] = test system: ANKA strain of P. berghei; assay: single dose STI in vivo screen in infected mice; set-up: species or system Plasmodium berghei
In short: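 Groups of 3-5 Moro SPF or NMRI mice infected with the ANKA strain of P. berghei received a single dose of trioxolane on day one post-infection. The compound was given in 3% ethanol and 7% Tween 80 or in SSV (0.5% w/v CMC, 0.5% v/v benzyl alcohol, 0.4% v/v Tween 80, 0.9% w/v sodium chloride in water). Antimalarial activity was scored as percent reduction in parasitemia on day three and as survival time versus untreated controls. Survival to day 30 counted as cure.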

[7] = test system: P. falciparum K1 strain (Thailand resistant to chloroquine); assay: semiautomated microdilution assay, [3H]-hypoxanthine incorporation, K1 strain; type: cell-based, Plasmodium falciparum; settings: K1 strain, 72 h incubation
In short: (§3)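 Intraerythrocytic stages from unsynchronised stock cultures are exposed to test compounds in a semiautomated microdilution format, and fifty percent inhibitory concentrations are then fitted by logit regression.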

[8] = test system: P. falciparum NF54 strain (sensitive to standard antimalarials); assay: semiautomated microdilution assay, [3H]-hypoxanthine incorporation, NF54 strain; type: cell-based, Plasmodium falciparum; settings: NF54 strain, 72 h incubation
In short: as §3

dosing in dogs = type: in vivo; settings: dog
From the text: (§4) Artesunate is listed as a reference compound.

dosing in rats = type: in vivo; settings: rat
From the text: as §4

[9] = chemical properties of OZ277 salts; settings: salt of OZ277
[10] = test system: parasitemia (malaria infection); assay: onset of action and recrudescence experiments; type: in vivo; settings: for Time of Recrudescence: single 100 mg/kg po (SSV) on day +3 post-infection, recrudescence = >5% parasitemia, followed up to 60 days, (n/5) = animals
Description: The onset of drug action was determined after a single fixed dose of 100 mg/kg (SSV vehicle) po to groups of five animals on day +3 post-infection (day 0).

[11] = single 100 mg/kg po 24 h before infection
[12] = 3 × 1 mg/kg days 1, 2, 3 post-infection
[13] = 3 × 3 mg/kg days 1, 2, 3 post-infection

SMILES	% reduction of schistosomule growth at day 21 after per os application of 200 mg/kg, FWR (%) [1]	% reduction of schistosomule growth at day 21 after per os application of 200 mg/kg, TWR (%) [1]	ED90 [2] [mg/kg]	ED99 [2] [mg/kg]	Prophylactic Activity (%) (P. berghei ANKA strain [3]; [11])	Prophylactic Activity (%) (P. berghei ANKA strain [3]; single 100 mg/kg po at 0 h)	Activity (%) p.o. SSV (P. berghei ANKA strain [4]; [12]) [%]	Activity (%) p.o. SSV (P. berghei ANKA strain [4]; [13]) [%]	% reduction of adult worms growth at day 49 after per os application of 400 mg/kg, TWR (%) [5] [%]	IC50 (ng/ml) K1 [7] [ng/mL]	IC50 (ng/ml) NF54 [8] [ng/mL]	Chemical Stability [9]	Crystallinity [9]	Particle size (90% of particles less than) [9]	Physical stability [9]	Stability in analytical solution (up to 24 hrs) [9]	Time of Recrudescence [10] [days]	other results
CO[C@H]1O[C@@H]2O[C@@]3(C)CC[C@H]4[C@H](C)CC[C@@H]([C@H]1C)[C@@]24OO3 [AM, artemether, reference compound]	(n4) 85%	(n4) 85%	4.2	7.1	0	100	51	86	53	–	–	–	–	–	–	–	–	FWRR/% (female worm reduction rate) (Schistosoma japonicum): 71%; Mice without ♀ worm (Schistosoma japonicum): 0/7; WRR/% (worm reduction rate) (Schistosoma japonicum): 62%; MTWB/x ± SD (mean total worm burden) (Schistosoma japonicum; control 26.6 ± 4.2): 10.1 ± 4.4
NC(=O)CNC[C@H]1CC[C@]2(CC1)OOC1(O2)C2CC3CC(C2)CC1C3 (stereo partly shown) [OZ256]	86%	85%	–	–	–	–	–	–	10	0.3 (≈ 0.856 nM)	0.2 (≈ 0.571 nM)	–	–	–	–	–	–	Activity (%) po ([6]; percent reduction in parasitemia day 3 post-infection, single 10 mg/kg po in 3% ethanol and 7% Tween 80, mice): 99.70%; Activity (%) sc ([6]; percent reduction in parasitemia day 3 post-infection, single 10 mg/kg sc in 3% ethanol and 7% Tween 80, mice): 99.95%; Activity (%) SSVpo ([6]; percent reduction in parasitemia day 3 post-infection, single po dose in standard suspending vehicle (SSV), mice): 99.67%; Survival (days) po ([6]; single 10 mg/kg po in 3% ethanol and 7% Tween 80, untreated control 5.6 ± 0.3): 8.7 days; Survival (days) sc ([6]; single 10 mg/kg sc in 3% ethanol and 7% Tween 80, untreated control 5.6 ± 0.3): 9.7 days; Survival (days) SSVpo ([6]; single po dose in SSV, untreated control 5.6 ± 0.3): 8.7 days; IV t1/2 (10 mg/kg) (dosing in dogs; IV 10 mg/kg): 1.42 h; Oral t1/2 (10 mg/kg) (dosing in dogs; oral 10 mg/kg): 1.38 h; Oral Bioavailability 10 mg/kg (dosing in dogs; oral 10 mg/kg, OZ 279, OZ 256, OZ 209 values flagged (V)): 42.0%; Oral Bioavailability 25 mg/kg (dosing in dogs; oral 25 mg/kg, OZ 279, OZ 256, OZ 209 values flagged (V)): 38.3%; IV t1/2 (10 mg/kg) (dosing in rats; IV 10 mg/kg): 1.57 h; Oral Bioavailability 10 mg/kg (dosing in rats; oral 10 mg/kg): 18.6%; Oral Bioavailability 25 mg/kg (dosing in rats; oral 25 mg/kg): 51.9%; Oral t1/2 (25 mg/kg) (dosing in rats; oral 25 mg/kg): 1.22 h; adult worms at day 49, per os 400 mg/kg, DEAD WORM (%) [5]: 19%
CC(C)(N)CNC(=O)CC1CCC2(CC1)OOC1(O2)C2CC3CC(C2)CC1C3.Cc1ccc(S(=O)(=O)O)cc1 (stereo not shown) [Tosylate]	–	–	–	–	–	–	–	–	–	–	–	Stable	Crystalline	˜50 μm	Stable	Stable	–	–
OC(c1cc(C(F)(F)F)nc2c(C(F)(F)F)cccc12)C1CCCCN1 (stereo not shown) [MFQ, mefloquine, reference compound]	–	–	5.4	6.8	100	100	2	98	–	–	–	–	–	–	–	–	28.0	Activity (%) 3 mg/kg SSV po ([6]; percent reduction in parasitemia day 3 post-infection, single 3 mg/kg po in SSV): 9%; Survival (days) 3 mg/kg SSV po ([6]; single 3 mg/kg po in SSV): 6.3 days; Survival (days) 10 mg/kg SSV po ([6]; single 10 mg/kg po in SSV): 17 days; IC50 ([8]; Plasmodium falciparum, read-out: IC50 (ng/ml) NF54): 5 ng/mL (≈ 13.2 nM); onset of action (decline in parasitemia) ([10]; single 100 mg/kg po (SSV), parasitemia monitored 12, 24, 48 h after treatment): slow onset of action; ED50 ([2]; Plasmodium berghei, read-out: ED50): 4 mg/kg; Prophylactic Activity (%) (P. berghei ANKA strain [3]; single 100 mg/kg po 48 h before infection): 99.92%; Prophylactic Activity (%) (P. berghei ANKA strain [3]; single 100 mg/kg po 72 h before infection): 99.97%; duration of prophylactic protection (P. berghei ANKA strain [3]; single 100 mg/kg po before infection): 3 days; Survival (days) p.o. SSV (P. berghei ANKA strain [4]; [12]): 6.2 days; Survival (days) p.o. SSV (P. berghei ANKA strain [4]; [13]): 12 days
O=C(C[C@H]1CC[C@]2(CC1)OOC1(O2)C2CC3CC(C2)CC1C3)NO (stereo partly shown) [OZ175]	–	–	6.2	9.9	–	–	–	–	–	1.4 (≈ 4.15 nM)	2.0 (≈ 5.93 nM)	–	–	–	–	–	13.0	ED50 [2]: 3.5 mg/kg
CC(C)(N)CNC(=O)CC1CCC2(CC1)OOC1(O2)C2CC3CC(C2)CC1C3.O=C(O)CCC(=O)O (stereo not shown) [Succinate]	–	–	–	–	–	–	–	–	–	–	–	Stable	Crystalline	˜150 μm	Stable	Stable	–	–
